Patent publication US20240060138A1, “BREAST CANCER-RESPONSE PREDICTION SUBTYPES” (The Regents of The University of California, priority 2022, published 2024)

System: high-risk stage II and III early breast cancer
Assay: I-SPY2 neoadjuvant platform trial: pCR rate by arm within receptor or response-predictive subtype
Format: in vivo, women
Description: I-SPY2 is an ongoing, open-label, adaptive, randomized phase II, multicenter trial of neoadjuvant therapy for early-stage breast cancer (NCT01042379; IND 105139). It is a platform trial evaluating multiple investigational arms in parallel against a common standard of care control arm. The primary endpoint is pCR (ypT0/is, ypN0), defined as the absence of invasive cancer in the breast and regional nodes at the time of surgery. As I-SPY2 is modified intent-to-treat, patients receiving any dose of study therapy are considered evaluable; those who switch to non-protocol therapy, progress, forgo surgery, or withdraw are deemed ‘non-pCR’. Secondary endpoints include residual cancer burden (RCB) and event-free and distant relapse-free survival (EFS and DRFS) (Symmans et al., 2007)
Assessments at screening establish eligibility and classify participants into subtypes defined by hormone receptor (HR) status, HER2, and 70-gene signature (MammaPrint®) status (Cardoso et al., 2016; Piccart et al., 2021). Adaptive randomization in I-SPY2 preferentially assigns patients to trial arms according to continuously updated Bayesian probabilities of pCR rates within each biomarker signature; 20% of patients are randomly assigned to the control arm (Berry, 2011). […] An arm can be dropped for futility if the predicted probability of success in a future 300-patient, 1:1 randomized, phase 3 trial drops below 10%, or graduate for efficacy if the probability of success reaches 85% or greater in any biomarker signature. The clinical control arm for the efficacy analysis uses patients randomized throughout the entire trial. […] During the design of each new experimental arm the investigators together with the pharmaceutical sponsor decide in which of the 10 a priori defined biomarker signatures the drug will be tested. Upon entry to the trial, participants are dichotomized into hormone receptor (HR) negative versus positive, HER2 positive versus negative, and MammaPrint High1 [MP1] versus High2 [MP2] status.
This correlative study involved 987 women with high-risk stage II and III early breast cancer who were enrolled in 10 arms of I-SPY2: the first 9 experimental arms that completed evaluation and the control arm as shown in the schema of FIG. 1A. […] For HER2+ patients, N was administered instead of H, whereas M and trebananib were administered in addition to H. Dose reductions and toxicity management were specified in the protocol. Adverse events were collected according to the NCI Common Terminology Criteria for Adverse Events (CTCAE) version 4.0. After completion of AC, patients underwent lumpectomy or mastectomy and nodal sampling, with choice of surgery at the discretion of the treating surgeon. Detailed descriptions of the design, eligibility, and efficacy of these 9 experimental arms of the I-SPY2 trial have been reported previously (Chien et al., 2019; Clark et al., 2021; Nanda et al., 2020; Park et al., 2016; Pusztai et al., 2021; Rugo et al., 2016).
A major goal of a response-predictive schema is to increase the pCR rate in the population and to maximize the probability of pCR for an individual patient (R2).

pembrolizumab
pCR rate (HER2-/Immune+ (RPS-5)): 79%
pCR rate (HR+HER2- receptor subtype): 30%
pCR rate (RPS-7 S3: HER2=0.or.low/Immune+): 79%
pCR rate (TN receptor subtype): 66%
pCR rate (TN, Immune+ patients): 89%
pCR rate (TN, Immune+/DRD+ class): 92%
pCR rate (TN, Immune+/DRD- class): 80%
pCR rate (TN, Immune-/DRD+ class): 33%

CCOc1cc2ncc(C#N)c(Nc3ccc(OCc4ccccn4)c(Cl)c3)c2cc1NC(=O)/C=C/CN(C)C [N, neratinib]
pCR rate (RPS-7 S6: HER2=0/Immune-/DRD-): 20%

ganitumab
pCR rate (RPS-7 S4: HR-/HER2low/Immune-/DRD-): 40%

pertuzumab
pCR rate (HER2+/BP-Luminal class (RPS-5)): 8%

veliparib/carboplatin [VC]
pCR rate (HER2-/Immune-/DRD+ (RPS-5)): 60%
pCR rate (RPS-7 S5: HER2=0.or.low/Immune-/DRD+): 60%
pCR rate (TN, DRD+ patients): 75%
pCR rate (TN, Immune+/DRD+ class): 74%
pCR rate (TN, Immune-/DRD+ class): 80%

NC1(c2ccc(-c3nc4ccn5c(=O)[nH]nc5c4cc3-c3ccccc3)cc2)CCC1 [MK2206, 8-[4-(1-aminocyclobutyl)phenyl]-9-phenyl-2H-[1,2,4]triazolo[3,4-f][1,6]naphthyridin-3-one]
pCR rate (HER2+/BP-HER2 or BP-Basal patients (RPS-5)): 48%
pCR rate (HER2+/BP-Luminal class (RPS-5)): 60%
pCR rate (HER2-/Immune-/DRD- (RPS-5)): 20%
pCR rate (RPS-7 S2: HER2+/BP Luminal): 60%
pCR rate (RPS-7 S6: HER2=0/Immune-/DRD-): 20%
pCR rate (RPS-7 S7: HR+HER2low/Immune-DRD-): 20%
